Experimental data published in patent US20120107932A1, “PRRS-VIRUS RECEPTOR AND ITS INHIBITOR” (priority 2009, published 2012).

Legend:
MA-104 and PAM cells [1] = experiment: Effects of blebbistatin on cells (cytopathic effects, CPE); type: cell-based
NMM-II = conditions: Straight et al. Science 2003; cited from earlier work
MA-104 and PAM cells [2] = experiment: Effects of blebbistatin on cells (cytopathic effects, CPE); type: cell-based; conditions: Table 4, Marc-145 and PAM cells
Method: Marc-145 and PAM cells (10^5 cells/ml) are cultured on DMEM medium (containing 100 U/ml penicillin, 50 μg/ml streptomycin sulphate, 50 μg/ml gentamycin and 10% calf serum) in an incubator under 37[…] and 5% CO2 to form monolayer. Dissolve (±)-blebbistatin, (S)-(−)-blebbistatin and (R)-(+)-blebbistatin (purchased from Tocris Cookson, Inc. [US]) in DMSO, then perform multiple-proportion dilution with PBS, add a monolayer culture plate and continuously culture it to observe cytopathic effects (CPE). Under a conventional microscope, CPE is observed as rough cell surface, strong refractivity, and finally cell shedding. […] Therefore, (+)-blebbistatin can be used as a PRRSV-receptor blocker.

PRRSV = experiment: PRRSV-receptor blocking test (CPE caused by PRRSV in Marc-145 and PAM cells); type: cell-based; design: key to Inhibition levels of CPE: “−” means no CPE; “+” means CPE in 25% cells; “++” means CPE in 50% cells; “+++” means CPE in above 75% cells; conditions: for Inhibition levels of CPE: PRRSV 10^3TCID50/ml, Marc-145 and PAM cells
Method: Marc-145 and PAM cells (10^5 cells/ml) are cultured on DMEM medium (containing 100 U/ml penicillin, 50 μg/ml streptomycin sulphate, 50 μg/ml gentamycin and 10% calf serum) in an incubator under 37 □ and 5% CO2 to form monolayer. Dissolve the NMHC II-A protein, artificially synthesized polypeptides, serum antibodies and (+)-blebbistatin obtained by using the methods of Implementation Examples 1, 2 and 4 in the DMEM medium; after de-germing by filtration, mix with PRRSV strains under different fixation concentrations (10^3TCID50/ml) and incubate an hour, and then add the cells above; perform eight repetitions for each dilution; after adsorption at 37 °C for an hour, remove the mixture, add DMEM medium and culture continuously; and observe CPE daily. The CPE manifestations caused by PRRSV infection include rough cell surface, strong refractivity, and finally cell shedding. The results in Table 5 illustrate the CPE inhibition levels of the NMHC II-A protein, artificially synthesized polypeptides, serum antibodies and (+)-blebbistatin under the each-well concentration of μg, μg, μL and μM in turn. The judgment results of cell CPE are expressed as follows: “−” means no CPE, “+” means CPE in 25% cells, “++” means CPE in 50% cells, and “+++” means CPE in above 75% cells.

MA-104 and PAM cells [3] = experiment: Indirect immunofluorescence assay (IFA), serum antibodies binding to cells; type: cell-based; conditions: serum of mice after third immunization with the named antigen
Method: Indirect immunofluorescence assay (IFA): After dilution, combine the mouse anti-NMHC II-A protein and anti-polypeptide antibodies after immunization three times with MA-104 and PAM monolayer cells for 0.5-2 hours, then bind the goat anti-mouse IgG testing antibody labeled with fluorescence to the cells.

NMM-II ATPase = conditions: vertebrate cells; Straight et al. Science 2003; cited from earlier work
[4] = dilution 1/40, MA-104 and PAM cells
[5] = dilution 1/80, MA-104 and PAM cells
[6] = dilution 1/160, MA-104 and PAM cells
[7] = dilution 1/320, MA-104 and PAM cells

| Compound | blebbistatin causing CPE or not (Yes or No) (MA-104 and PAM cells [1]; 1 μM) | blebbistatin causing CPE or not (Yes or No) (MA-104 and PAM cells [1]; 2 μM) | blebbistatin causing CPE or not (Yes or No) (MA-104 and PAM cells [1]; 5 μM) | blebbistatin causing CPE or not (Yes or No) (MA-104 and PAM cells [1]; 10 μM) | blebbistatin causing CPE or not (Yes or No) (MA-104 and PAM cells [1]; 20 μM) | blebbistatin causing CPE or not (Yes or No) (MA-104 and PAM cells [1]; 50 μM) | blebbistatin causing CPE or not (Yes or No) (MA-104 and PAM cells [1]; 100 μM) | effect on cell proliferation and CPE (MA-104 and PAM cells [2]) | Cell-bound serum (with or without fluorescence) (MA-104 and PAM cells [3]; [4]) | Cell-bound serum (with or without fluorescence) (MA-104 and PAM cells [3]; [5]) | Cell-bound serum (with or without fluorescence) (MA-104 and PAM cells [3]; [6]) | Cell-bound serum (with or without fluorescence) (MA-104 and PAM cells [3]; [7]) | Inhibition levels of CPE (PRRSV; 1 μg per well) | Inhibition levels of CPE (PRRSV; 2 μg per well) | Inhibition levels of CPE (PRRSV; 5 μg per well) | Inhibition levels of CPE (PRRSV; 10 μg per well) | Inhibition levels of CPE (PRRSV; 20 μg per well) | Inhibition levels of CPE (PRRSV; 50 μg per well) | Inhibition levels of CPE (PRRSV; 100 μg per well) | inhibition of the cell CPE caused by PRRSV (PRRSV; at 2 μg-100 μg/well) | further results |
| --- | --- | --- | --- | --- | --- | --- | --- | --- | --- | --- | --- | --- | --- | --- | --- | --- | --- | --- | --- | --- | --- |
| Cc1ccc2c(c1)C(=O)[C@@]1(O)CCN(c3ccccc3)C1=N2 [(+)-blebbistatin, (R)-(+)-blebbistatin, reference compound] | No | No | No | No | No | No | No | does not inhibit cell proliferation and does not cause CPE |  |  |  |  |  |  |  |  |  |  |  |  | inhibition of NMM-II-dependent cellular division and proliferation (NMM-II): does not inhibit; Inhibition levels of CPE (PRRSV; 1 μM per well): + (“+” means CPE in 25% cells); Inhibition levels of CPE (PRRSV; 2 μM per well): −; Inhibition levels of CPE (PRRSV; 5 μM per well): −; Inhibition levels of CPE (PRRSV; 10 μM per well): −; Inhibition levels of CPE (PRRSV; 20 μM per well): −; Inhibition levels of CPE (PRRSV; 50 μM per well): −; Inhibition levels of CPE (PRRSV; 100 μM per well): −; inhibition of the cell CPE caused by PRRSV (PRRSV; at 2 μM-100 μM/well): fully inhibit; blocking of PRRSV strains from infecting cells (PRRSV; classic American strains (VR-2332), Chinese isolates (Ch-1a), highly pathogenic strains (JXA-1)): block the classic American strains, Chinese isolates and highly pathogenic strains of PRRSV from infecting cells |
| Polypeptide (Seq ID No: 3): NMHC II-A artificial polypeptide, amino-acid sequence Seq ID No: 3 (GAGDGSDEEVDGKA) |  |  |  |  |  |  |  |  | Yes | Yes | Yes | Yes | ++ (“++” means CPE in 50% cells) | − | − | − | − | − | − | fully inhibit |  |
| Polypeptide (Seq ID No: 4): NMHC II-A artificial polypeptide, amino-acid sequence Seq ID No: 4 (KADGAEAKPAE) |  |  |  |  |  |  |  |  | Yes | Yes | Yes | Yes | ++ (“++” means CPE in 50% cells) | − | − | − | − | − | − | fully inhibit |  |
| Cc1ccc2c(c1)C(=O)C1(O)CCN(c3ccccc3)C1=N2 (racemic) [(±)-blebbistatin] | Yes | Yes | Yes | Yes | Yes | Yes | Yes | can inhibit cell proliferation and cause CPE |  |  |  |  |  |  |  |  |  |  |  |  | inhibition of NMM-II ATPase activity (NMM-II ATPase): selective inhibitor |
| Polypeptide (Seq ID No: 2): NMHC II-A artificial polypeptide, amino-acid sequence Seq ID No: 2 (GAGDGSDEE) |  |  |  |  |  |  |  |  | Yes | Yes | Yes | Yes | ++ (“++” means CPE in 50% cells) | − | − | − | − | − | − | fully inhibit |  |
| Cc1ccc2c(c1)C(=O)[C@]1(O)CCN(c3ccccc3)C1=N2 [(S)-(−)-blebbistatin] | Yes | Yes | Yes | Yes | Yes | Yes | Yes | can inhibit cell proliferation and cause CPE |  |  |  |  |  |  |  |  |  |  |  |  |  |
